Experimental data published in patent US20200354426A1 (MEDIMMUNE LIMITED, priority 2016, published 2020).
pEC50: −log10 of the molar value. Numbered stars: 1 amine (or outer) side, 2 acyl side, 3 side chain; on linkers, the order of the positions; unused ones are H or OH. Side chains are listed from the residue outwards. Peptide text beside a SMILES is read from it. * marks the point of attachment. γGlu = O=C(O)[C@H](CCC(=O)[*:2])N[*:1]; Palmitoyl = CCCCCCCCCCCCCCCC(=O)*

Experiments:
Assay in all cases: cAMP activity assay in assay medium (assay 1)
Format in all cases: cell-based
Human GIPr = target: T1, Human GIPr (Homo sapiens, UniProt P48546); conditions: assay medium; Table 4; read-out: hGIPR EC50
T1 construct: expressed in transfected cells
T1 sequence (P48546 22-466): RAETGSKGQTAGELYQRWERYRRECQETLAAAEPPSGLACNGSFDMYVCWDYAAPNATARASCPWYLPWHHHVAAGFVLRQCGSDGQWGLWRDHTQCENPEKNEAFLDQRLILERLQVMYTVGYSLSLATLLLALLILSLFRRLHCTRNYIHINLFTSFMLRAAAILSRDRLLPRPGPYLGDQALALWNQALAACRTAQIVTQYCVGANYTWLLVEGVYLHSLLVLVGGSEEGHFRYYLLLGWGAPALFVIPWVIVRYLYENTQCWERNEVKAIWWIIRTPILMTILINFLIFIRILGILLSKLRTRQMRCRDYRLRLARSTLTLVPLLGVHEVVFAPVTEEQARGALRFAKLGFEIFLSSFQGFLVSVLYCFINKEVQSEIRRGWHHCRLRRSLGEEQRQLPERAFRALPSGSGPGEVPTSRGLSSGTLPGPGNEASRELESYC
Source text: (§1) Biological Activity of Peptides in Cell-Based cAMP Activity Assay (Assay 1):
(§2) All sample dilutions were made in duplicate.

Human GlucR = target: T2, Human GlucR (Homo sapiens, UniProt P47871); conditions: assay medium; Table 4; read-out: hGlucR EC50
T2 construct: expressed in transfected cells
T2 sequence (P47871 26-477): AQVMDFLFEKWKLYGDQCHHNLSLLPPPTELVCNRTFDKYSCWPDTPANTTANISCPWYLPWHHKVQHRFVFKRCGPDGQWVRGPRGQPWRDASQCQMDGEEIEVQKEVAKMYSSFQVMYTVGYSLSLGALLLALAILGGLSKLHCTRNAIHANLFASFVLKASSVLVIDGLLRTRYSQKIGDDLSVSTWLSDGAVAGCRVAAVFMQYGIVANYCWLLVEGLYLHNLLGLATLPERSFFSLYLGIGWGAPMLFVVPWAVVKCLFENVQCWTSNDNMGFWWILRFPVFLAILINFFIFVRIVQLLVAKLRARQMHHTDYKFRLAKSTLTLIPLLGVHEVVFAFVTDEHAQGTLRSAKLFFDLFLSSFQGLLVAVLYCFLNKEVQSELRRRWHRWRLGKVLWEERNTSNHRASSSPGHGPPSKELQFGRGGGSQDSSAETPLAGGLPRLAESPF
Source text: as §1, §2

Human GLP1R = Human GLP1R (Homo sapiens, UniProt P43220); set-up: expressed in transfected cells; conditions: assay medium; Table 4; read-out: hGLP1R EC50
Chain of Human GLP1R (P43220 24-463): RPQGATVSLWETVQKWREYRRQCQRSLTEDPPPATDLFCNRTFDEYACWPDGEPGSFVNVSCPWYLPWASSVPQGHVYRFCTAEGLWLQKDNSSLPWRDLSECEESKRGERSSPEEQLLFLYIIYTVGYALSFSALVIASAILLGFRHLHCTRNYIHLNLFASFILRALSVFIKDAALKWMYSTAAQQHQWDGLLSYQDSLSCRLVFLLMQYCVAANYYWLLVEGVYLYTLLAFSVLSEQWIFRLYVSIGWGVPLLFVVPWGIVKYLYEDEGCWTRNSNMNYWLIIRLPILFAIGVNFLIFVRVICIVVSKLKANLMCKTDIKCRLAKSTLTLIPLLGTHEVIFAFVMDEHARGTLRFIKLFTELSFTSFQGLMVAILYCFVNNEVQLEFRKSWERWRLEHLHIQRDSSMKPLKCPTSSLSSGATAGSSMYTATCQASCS
Source text: as §1, §2

pEC50 (Human GIPr) | pEC50 (Human GlucR) | pEC50 (Human GLP1R) | SMILES
7.09 | 7.09 | 9.61 | CCCCCCCCCCCCCCCC(=O)N[C@@H](CCC(=O)NCCCC[C@H](NC(=O)[C@H](CO)NC(=O)[C@H](CC(=O)O)NC(=O)[C@H](CC(C)C)NC(=O)[C@H](Cc1ccc(O)cc1)NC(=O)[C@H](CCCCN)NC(=O)[C@H](CO)NC(=O)[C@H](Cc1ccc(O)cc1)NC(=O)[C@H](CC(=O)O)NC(=O)[C@H](CO)NC(=O)[C@@H](NC(=O)[C@H](Cc1ccccc1)NC(=O)[C@@H](NC(=O)CNC(=O)[C@H](CCC(=O)O)NC(=O)[C@H](CO)NC(=O)[C@@H](N)Cc1c[nH]cn1)[C@@H](C)O)[C@@H](C)O)C(=O)N[C@@H](CCCNC(=N)N)C(=O)N[C@@H](C)C(=O)N[C@@H](CCC(=O)O)C(=O)N[C@@H](CC(=O)O)C(=O)N[C@@H](Cc1ccccc1)C(=O)N[C@H](C(=O)N[C@@H](CCC(=O)O)C(=O)N[C@@H](Cc1c[nH]c2ccccc12)C(=O)N[C@@H](CC(C)C)C(=O)N[C@H](C(=O)N[C@@H](C)C(=O)NCC(=O)NCC(N)=O)C(C)C)C(C)C)C(=O)O [g639] (H-HSEGTFTSDYSKYLDSK([γGlu-Palmitoyl])RAEDFVEWLVAGG-NH2; N-terminus assumed)
6.48 | 8.82 | 8.97 | CCCCCCCCCCCCCCCC(=O)N[C@@H](CCC(=O)NCCCC[C@H](NC(=O)[C@H](CO)NC(=O)[C@H](CC(=O)O)NC(=O)[C@H](CC(C)C)NC(=O)[C@H](Cc1ccc(O)cc1)NC(=O)[C@H](CCCCN)NC(=O)[C@H](CO)NC(=O)[C@H](Cc1ccc(O)cc1)NC(=O)[C@H](CC(=O)O)NC(=O)[C@H](CO)NC(=O)[C@@H](NC(=O)[C@H](Cc1ccccc1)NC(=O)[C@@H](NC(=O)CNC(=O)[C@H](CCC(N)=O)NC(=O)CNC(=O)[C@@H](N)Cc1c[nH]cn1)[C@@H](C)O)[C@@H](C)O)C(=O)N[C@@H](CCCNC(=N)N)C(=O)N[C@@H](C)C(=O)N[C@@H](CCCNC(=N)N)C(=O)N[C@@H](CC(=O)O)C(=O)N[C@@H](Cc1ccccc1)C(=O)N[C@H](C(=O)N[C@@H](CCC(=O)O)C(=O)N[C@@H](Cc1c[nH]c2ccccc12)C(=O)N[C@@H](CC(C)C)C(=O)N[C@H](C(=O)N[C@@H](C)C(=O)NCC(=O)NCC(N)=O)C(C)C)C(C)C)C(=O)O [g660] (H-HGQGTFTSDYSKYLDSK([γGlu-Palmitoyl])RARDFVEWLVAGG-NH2; N-terminus assumed)
7.83 | 11.10 | 10.69 | CCCCCCCCCCCCCCCC(=O)N[C@@H](CCC(=O)NCCCC[C@H](NC(=O)[C@H](Cc1ccc(O)cc1)NC(=O)[C@H](CCCCN)NC(=O)[C@H](CO)NC(=O)[C@H](Cc1ccc(O)cc1)NC(=O)[C@H](CC(=O)O)NC(=O)[C@H](CO)NC(=O)[C@@H](NC(=O)[C@H](Cc1ccccc1)NC(=O)[C@@H](NC(=O)CNC(=O)[C@H](CCC(N)=O)NC(=O)[C@H](CO)NC(=O)[C@@H](N)Cc1c[nH]cn1)[C@@H](C)O)[C@@H](C)O)C(=O)N[C@@H](CC(=O)O)C(=O)N[C@@H](CO)C(=O)N[C@@H](CCCNC(=N)N)C(=O)N[C@@H](CO)C(=O)N[C@@H](C)C(=O)N[C@@H](CCC(N)=O)C(=O)N[C@@H](CC(=O)O)C(=O)N[C@@H](Cc1ccccc1)C(=O)N[C@H](C(=O)N[C@@H](CCC(N)=O)C(=O)N[C@@H](Cc1c[nH]c2ccccc12)C(=O)N[C@@H](CC(C)C)C(=O)N[C@H](C(=O)N[C@@H](C)C(=O)NCC(=O)NCC(N)=O)C(C)C)C(C)C)C(=O)O [g670] (H-HSQGTFTSDYSKYK([γGlu-Palmitoyl])DSRSAQDFVQWLVAGG-NH2; N-terminus assumed)
5.79 | 7.42 | 9.82 | CCCCCCCCCCCCCCCC(=O)N[C@@H](CCC(=O)NCCCC[C@H](NC(=O)[C@H](CO)NC(=O)[C@H](CC(=O)O)NC(=O)[C@H](CC(C)C)NC(=O)[C@H](Cc1ccc(O)cc1)NC(=O)[C@H](CCC(=O)O)NC(=O)[C@H](CO)NC(=O)[C@H](Cc1ccc(O)cc1)NC(=O)[C@H](CC(=O)O)NC(=O)[C@H](CO)NC(=O)[C@@H](NC(=O)[C@H](Cc1ccccc1)NC(=O)[C@@H](NC(=O)CNC(=O)[C@H](CCC(N)=O)NC(=O)CNC(=O)[C@@H](N)Cc1c[nH]cn1)[C@@H](C)O)[C@@H](C)O)C(=O)N[C@@H](CCCNC(=N)N)C(=O)N[C@@H](C)C(=O)N[C@@H](CCCNC(=N)N)C(=O)N[C@@H](CC(=O)O)C(=O)N[C@@H](Cc1ccccc1)C(=O)N[C@H](C(=O)N[C@@H](C)C(=O)N[C@@H](Cc1c[nH]c2ccccc12)C(=O)N[C@@H](CC(C)C)C(=O)N[C@H](C(=O)N[C@@H](C)C(=O)NCC(=O)NCC(N)=O)C(C)C)C(C)C)C(=O)O [g675] (H-HGQGTFTSDYSEYLDSK([γGlu-Palmitoyl])RARDFVAWLVAGG-NH2; N-terminus assumed)
6.91 | 8.34 | 9.97 | CCCCCCCCCCCCCCCC(=O)N[C@@H](CCC(=O)NCCCC[C@H](NC(=O)[C@H](CO)NC(=O)[C@H](CC(=O)O)NC(=O)[C@H](CC(C)C)NC(=O)[C@H](Cc1ccc(O)cc1)NC(=O)[C@H](CCCCN)NC(=O)[C@H](CO)NC(=O)[C@H](Cc1ccc(O)cc1)NC(=O)[C@H](CC(=O)O)NC(=O)[C@H](CO)NC(=O)[C@@H](NC(=O)[C@H](Cc1ccccc1)NC(=O)[C@@H](NC(=O)CNC(=O)[C@H](CCC(N)=O)NC(=O)CNC(=O)[C@@H](N)Cc1c[nH]cn1)[C@@H](C)O)[C@@H](C)O)C(=O)N[C@@H](CCCNC(=N)N)C(=O)N[C@@H](C)C(=O)N[C@@H](CCC(=O)O)C(=O)N[C@@H](CC(=O)O)C(=O)N[C@@H](Cc1ccccc1)C(=O)N[C@H](C(=O)N[C@@H](CCC(N)=O)C(=O)N[C@@H](Cc1c[nH]c2ccccc12)C(=O)N[C@@H](CC(C)C)C(=O)N[C@H](C(=O)N[C@@H](C)C(=O)NCC(=O)NCC(N)=O)C(C)C)C(C)C)C(=O)O [g678] (H-HGQGTFTSDYSKYLDSK([γGlu-Palmitoyl])RAEDFVQWLVAGG-NH2; N-terminus assumed)
6.93 | 9.72 | 9.87 | CCCCCCCCCCCCCCCC(=O)N[C@@H](CCC(=O)NCCCC[C@H](NC(=O)[C@H](CO)NC(=O)[C@H](CC(=O)O)NC(=O)[C@H](CC(C)C)NC(=O)[C@H](Cc1ccc(O)cc1)NC(=O)[C@H](CCCCN)NC(=O)[C@H](CO)NC(=O)[C@H](Cc1ccc(O)cc1)NC(=O)[C@H](CC(=O)O)NC(=O)[C@H](CO)NC(=O)[C@@H](NC(=O)[C@H](Cc1ccccc1)NC(=O)[C@@H](NC(=O)CNC(=O)[C@H](CCC(N)=O)NC(=O)CNC(=O)[C@@H](N)Cc1c[nH]cn1)[C@@H](C)O)[C@@H](C)O)C(=O)N[C@@H](CCCNC(=N)N)C(=O)N[C@@H](C)C(=O)N[C@@H](CCC(N)=O)C(=O)N[C@@H](CC(=O)O)C(=O)N[C@@H](Cc1ccccc1)C(=O)N[C@H](C(=O)N[C@@H](CCC(=O)O)C(=O)N[C@@H](Cc1c[nH]c2ccccc12)C(=O)N[C@@H](CC(C)C)C(=O)N[C@H](C(=O)N[C@@H](C)C(=O)NCC(=O)NCC(N)=O)C(C)C)C(C)C)C(=O)O [g679] (H-HGQGTFTSDYSKYLDSK([γGlu-Palmitoyl])RAQDFVEWLVAGG-NH2; N-terminus assumed)
7.01 | 8.43 | 9.71 | CCCCCCCCCCCCCCCC(=O)N[C@@H](CCC(=O)NCCCC[C@H](NC(=O)[C@H](CO)NC(=O)[C@H](CC(=O)O)NC(=O)[C@H](CC(C)C)NC(=O)[C@H](Cc1ccc(O)cc1)NC(=O)[C@H](CCCCN)NC(=O)[C@H](CO)NC(=O)[C@H](Cc1ccc(O)cc1)NC(=O)[C@H](CC(=O)O)NC(=O)[C@H](CO)NC(=O)[C@@H](NC(=O)[C@H](Cc1ccccc1)NC(=O)[C@@H](NC(=O)CNC(=O)[C@H](CCC(N)=O)NC(=O)CNC(=O)[C@@H](N)Cc1c[nH]cn1)[C@@H](C)O)[C@@H](C)O)C(=O)N[C@@H](CCCNC(=N)N)C(=O)N[C@@H](C)C(=O)N[C@@H](CCC(=O)O)C(=O)N[C@@H](CC(=O)O)C(=O)N[C@@H](Cc1ccccc1)C(=O)N[C@H](C(=O)N[C@@H](CCC(=O)O)C(=O)N[C@@H](Cc1c[nH]c2ccccc12)C(=O)N[C@@H](CC(C)C)C(=O)N[C@H](C(=O)N[C@@H](C)C(=O)NCC(=O)NCC(N)=O)C(C)C)C(C)C)C(=O)O [g680] (H-HGQGTFTSDYSKYLDSK([γGlu-Palmitoyl])RAEDFVEWLVAGG-NH2; N-terminus assumed)
6.91 | 7.40 | 9.55 | CCCCCCCCCCCCCCCC(=O)N[C@@H](CCC(=O)NCCCC[C@H](NC(=O)[C@H](CO)NC(=O)[C@H](CC(=O)O)NC(=O)[C@H](CC(C)C)NC(=O)[C@H](Cc1ccc(O)cc1)NC(=O)[C@H](CCCCN)NC(=O)[C@H](CO)NC(=O)[C@H](Cc1ccc(O)cc1)NC(=O)[C@H](CC(=O)O)NC(=O)[C@H](CO)NC(=O)[C@@H](NC(=O)[C@H](Cc1ccccc1)NC(=O)[C@@H](NC(=O)CNC(=O)[C@H](CCC(=O)O)NC(=O)CNC(=O)[C@@H](N)Cc1c[nH]cn1)[C@@H](C)O)[C@@H](C)O)C(=O)N[C@@H](CCCNC(=N)N)C(=O)N[C@@H](C)C(=O)N[C@@H](CCC(=O)O)C(=O)N[C@@H](CC(=O)O)C(=O)N[C@@H](Cc1ccccc1)C(=O)N[C@H](C(=O)N[C@@H](CCC(=O)O)C(=O)N[C@@H](Cc1c[nH]c2ccccc12)C(=O)N[C@@H](CC(C)C)C(=O)N[C@H](C(=O)N[C@@H](C)C(=O)NCC(=O)NCC(N)=O)C(C)C)C(C)C)C(=O)O [g681] (H-HGEGTFTSDYSKYLDSK([γGlu-Palmitoyl])RAEDFVEWLVAGG-NH2; N-terminus assumed)
